A short description of the data set: Molar enthalpy of transition or fusion. Conditions: Crystal; DSC.

The record followed here is the NIST ThermoML archive (doi:10.1016/j.jct.2017.01.006).

± gives the expanded uncertainty stated by the source.

`Nc1ccc(N)c([N+](=O)[O-])c1` [2-nitro-1,4-benzenediamine]: the “Molar enthalpy of transition or fusion” value was 3.92 ± 0.21 kcal/mol.
